Measurements taken from patent US10294202B2, “Pyrrolidinones as herbicides” (FMC Corporation, priority 2013, dated 2019).
Like-named read-outs stand apart in the source and are kept apart here.

Key:
barnyardgrass [1] = test: Test C pre-/postemergence herbicide test; assay type: in vivo, Echinochloa crus-galli
Outline: (§1)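 Compound solutions contained surfactant in a non-phytotoxic solvent. These were sprayed onto pots of loam/sand sown with seeds, and onto young plants (2 to 18 cm, 1- to 4-leaf) in sphagnum peat–vermiculite mix. Visual injury scores (0 none, 100 complete control) were recorded after 13 to 15 days.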

barnyardgrass [2] = test: Test A pre-/postemergence herbicide test; assay type: in vivo, Echinochloa crus-galli; conditions: for pest or weed control at 500 g/ha: 500 g ai/ha, 0 to 100 scale (0 no effect, 100 complete control)
Outline: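 Formulated compound (non-phytotoxic solvent, surfactant) sprayed pre- onto soil of seeded loam/sand pots or post- onto seedlings at 1–2 leaves; ~10 d greenhouse; 0–100 visual control rating versus untreated.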

oilseed rape = test: Test C pre-/postemergence herbicide test; assay type: in vivo, Brassica napus
Outline: as §1

oat, wild = test: Test C pre-/postemergence herbicide test; assay type: in vivo, Avena fatua; conditions: Postemergence
Outline: as §1

pigweed = test: Test C pre-/postemergence herbicide test; assay type: in vivo, Amaranthus retroflexus
Outline: as §1

wheat (winter wheat) = test: Test C pre-/postemergence herbicide test; assay type: in vivo, Triticum aestivum
Outline: as §1

blackgrass = test: Test C pre-/postemergence herbicide test; assay type: in vivo, Alopecurus myosuroides
Outline: as §1

galium = test: Test C pre-/postemergence herbicide test; assay type: in vivo, Galium aparine
Outline: as §1

soybean = test: Test C pre-/postemergence herbicide test; assay type: in vivo, Glycine max
Outline: as §1

crabgrass, large = test: Test C pre-/postemergence herbicide test; assay type: in vivo, Digitaria sanguinalis
Outline: as §1

velvetleaf = test: Test C pre-/postemergence herbicide test; assay type: in vivo, Abutilon theophrasti
Outline: as §1

foxtail, giant = test: Test C pre-/postemergence herbicide test; assay type: in vivo, Setaria faberii
Outline: as §1

[3] = Postemergence, 31 g ai/ha, scale 0 (no effect) to 100 (complete control)
[4] = Postemergence, 62 g ai/ha, scale 0 to 100 (0 no effect, 100 complete control)
[5] = Postemergence, 125 g ai/ha, scale 0 to 100 (0 no effect, 100 complete control)
[6] = Postemergence, 250 g ai/ha, scale 0 to 100 (0 no effect, 100 complete control)
[7] = Preemergence, 31 g ai/ha, scale 0 to 100, 0 is no effect and 100 is complete control
[8] = Preemergence, 62 g ai/ha, scale 0 to 100
[9] = Preemergence, 125 g ai/ha, scale 0 to 100 (0 no effect, 100 complete control)

Structure (SMILES): O=C1NCC(c2ccc(C(F)(F)F)cc2)C1C(=O)Nc1ccccc1F (stereo not drawn) [Compound 79, N-(2-fluorophenyl)-2-oxo-4-[4-(trifluoromethyl)phenyl]-3-pyrrolidinecarboxamide]
- Plant response rating, Barnyardgrass (barnyardgrass [1]; [3]): 0
- Plant response rating, Barnyardgrass (barnyardgrass [1]; [4]): 0
- Plant response rating, Barnyardgrass (barnyardgrass [1]; [5]): 35
- Plant response rating, Barnyardgrass (barnyardgrass [1]; [6]): 60
- Barnyardgrass plant response rating (barnyardgrass [1]; [7]): 40
- Plant response rating, Barnyardgrass (barnyardgrass [1]; [8]): 95
- Plant response rating, Barnyardgrass (barnyardgrass [1]; [9]): 95
- Plant response rating (scale of 0 to 100; 0 is no effect, 100 is complete control), Barnyardgrass (barnyardgrass [1]; Preemergence, 250 g ai/ha): 98
- pest or weed control at 125 g/ha (barnyardgrass [2]; Echinochloa crus-galli, post-emergence, 240 h, Postemergence, 125 g ai/ha, 0 to 100 scale, 0 no effect, 100 complete control, read-out: Plant response rating, Barnyardgrass): 80%
- pest or weed control at 500 g/ha (barnyardgrass [2]; Echinochloa crus-galli, post-emergence, 240 h, Postemergence, read-out: Plant response rating, Barnyardgrass): 90%
- pest or weed control at 500 g/ha (barnyardgrass [2]; Echinochloa crus-galli, pre-emergence, 240 h, preemergence, read-out: Plant response rating, Barnyardgrass): 90%
- Barnyardgrass plant response rating (barnyardgrass [2]; Preemergence, 125 g ai/ha, visual rating on 0 to 100 scale (0 no effect, 100 complete control)): 80
- Plant response rating, Oilseed Rape (oilseed rape; [3]): 0
- Plant response rating, Oilseed Rape (oilseed rape; [4]): 0
- Plant response rating, Oilseed Rape (oilseed rape; [5]): 0
- Plant response rating, Oilseed Rape (oilseed rape; [6]): 0
- Oilseed Rape plant response rating (oilseed rape; [7]): 0
- Plant response rating, Oilseed Rape (oilseed rape; [8]): 5
- Plant response rating, Oilseed Rape (oilseed rape; [9]): 70
- Plant response rating (scale of 0 to 100), Oilseed Rape (oilseed rape; Preemergence, 250 g ai/ha): 80
- Plant response rating, Oat, Wild (oat, wild; 31 g ai/ha, scale 0 (no effect) to 100 (complete control)): 0
- Plant response rating, Oat, Wild (oat, wild; 62 g ai/ha, scale 0 to 100 (0 no effect, 100 complete control)): 0
- Plant response rating, Oat, Wild (oat, wild; 125 g ai/ha, scale 0 to 100 (0 no effect, 100 complete control)): 0
- Plant response rating, Oat, Wild (oat, wild; 250 g ai/ha, scale 0 to 100 (0 no effect, 100 complete control)): 0
- Plant response rating, Pigweed (pigweed; [3]): 35
- Plant response rating, Pigweed (pigweed; [4]): 35
- Plant response rating, Pigweed (pigweed; [5]): 35
- Plant response rating, Pigweed (pigweed; [6]): 35
- Pigweed plant response rating (pigweed; [7]): 10
- Plant response rating, Pigweed (pigweed; [8]): 40
- Plant response rating, Pigweed (pigweed; [9]): 50
- Plant response rating (scale of 0 to 100), Pigweed (pigweed; Preemergence, 250 g ai/ha): 65
- Plant response rating, Wheat (wheat (winter wheat); [3]): 0
- Plant response rating, Wheat (wheat (winter wheat); [4]): 0
- Plant response rating, Wheat (wheat (winter wheat); [5]): 0
- Plant response rating, Wheat (wheat (winter wheat); [6]): 0
- Wheat plant response rating (wheat (winter wheat); [7]): 10
- Plant response rating, Wheat (wheat (winter wheat); [8]): 40
- Plant response rating, Wheat (wheat (winter wheat); [9]): 60
- Plant response rating (scale of 0 to 100), Wheat (wheat (winter wheat); Preemergence, 250 g ai/ha): 75
- Plant response rating, Blackgrass (blackgrass; [3]): 0
- Plant response rating, Blackgrass (blackgrass; [4]): 0
- Plant response rating, Blackgrass (blackgrass; [5]): 0
- Plant response rating, Blackgrass (blackgrass; [6]): 5
- Blackgrass plant response rating (blackgrass; [7]): 0
- Plant response rating, Blackgrass (blackgrass; [8]): 65
- Plant response rating, Blackgrass (blackgrass; [9]): 85
- Plant response rating (scale of 0 to 100), Blackgrass (blackgrass; Preemergence, 250 g ai/ha): 85
- Plant response rating, Galium (galium; [3]): 30
- Plant response rating, Galium (galium; [4]): 60
- Plant response rating, Galium (galium; [5]): 60
- Galium plant response rating (galium; [7]): 0
- Plant response rating, Galium (galium; [8]): 5
- Plant response rating, Galium (galium; [9]): 85
- Plant response rating (scale of 0 to 100), Galium (galium; Preemergence, 250 g ai/ha): 90
- Plant response rating, Soybean (soybean; [3]): 0
- Plant response rating, Soybean (soybean; [4]): 0
- Plant response rating, Soybean (soybean; [5]): 10
- Plant response rating, Soybean (soybean; [6]): 10
- Soybean plant response rating (soybean; [7]): 0
- Plant response rating, Soybean (soybean; [8]): 0
- Plant response rating, Soybean (soybean; [9]): 0
- Plant response rating (scale of 0 to 100), Soybean (soybean; Preemergence, 250 g ai/ha): 0
- Plant response rating, Crabgrass, Large (crabgrass, large; [3]): 5
- Plant response rating, Crabgrass, Large (crabgrass, large; [4]): 5
- Plant response rating, Crabgrass, Large (crabgrass, large; [5]): 65
- Plant response rating, Crabgrass, Large (crabgrass, large; [6]): 75
- Crabgrass, Large plant response rating (crabgrass, large; [7]): 95
- Plant response rating, Crabgrass, Large (crabgrass, large; [8]): 98
- Plant response rating, Crabgrass, Large (crabgrass, large; [9]): 100
- Plant response rating (scale of 0 to 100), Crabgrass, Large (crabgrass, large; Preemergence, 250 g ai/ha): 100
- Plant response rating, Velvetleaf (velvetleaf; [3]): 0
- Plant response rating, Velvetleaf (velvetleaf; [4]): 0
- Plant response rating, Velvetleaf (velvetleaf; [5]): 0
- Plant response rating, Velvetleaf (velvetleaf; [6]): 0
- Velvetleaf plant response rating (velvetleaf; [7]): 0
- Plant response rating, Velvetleaf (velvetleaf; [8]): 0
- Plant response rating, Velvetleaf (velvetleaf; [9]): 20
- Plant response rating (scale of 0 to 100), Velvetleaf (velvetleaf; Preemergence, 250 g ai/ha): 35
- Plant response rating, Foxtail, Giant (foxtail, giant; [3]): 15
- Plant response rating, Foxtail, Giant (foxtail, giant; [4]): 15
- Plant response rating, Foxtail, Giant (foxtail, giant; [5]): 15
- Plant response rating, Foxtail, Giant (foxtail, giant; [6]): 15
- Foxtail, Giant plant response rating (foxtail, giant; [7]): 80
- Plant response rating, Foxtail, Giant (foxtail, giant; [8]): 90
- Plant response rating, Foxtail, Giant (foxtail, giant; [9]): 95
- Plant response rating (scale of 0 to 100), Foxtail, Giant (foxtail, giant; Preemergence, 250 g ai/ha): 98
